Experimental data published in publication PMC7242711, “An integrated approach to unravel a crucial structural property required for the function of the insect steroidogenic Halloween protein Noppera-bo” (The Journal of Biological Chemistry, 2020).

What was measured:
DmNobo [1] = target: T1, DmNobo (Drosophila melanogaster, UniProt Q7JYX0); experiment: fluorogenic GSH conjugation assay with […],4-DNADCF; assay type: biochemical; conditions: 1 mM GSH, 1 μM 3,4-DNADCF (final, after equal-volume mixing), 100 mM sodium phosphate pH 6.5, 0.01% Tween 20; H-site
T1 construct: gene GstE14; full-length CDS, pCold-III, N-terminal translation enhancing element MNHKV kept; E. coli BL21(DE3); homodimer

AgNobo [2] = target: T2, AgNobo (Anopheles gambiae, UniProt Q8WQJ5, D111A); experiment: fluorogenic GSH conjugation assay with […],4-DNADCF; assay type: biochemical
T2 construct: gene GSTe8; full-length CDS, pCold-III, N-terminal MNHKV kept; E. coli BL21(DE3)
T2 sequence (Q8WQJ5 1-217 D111A): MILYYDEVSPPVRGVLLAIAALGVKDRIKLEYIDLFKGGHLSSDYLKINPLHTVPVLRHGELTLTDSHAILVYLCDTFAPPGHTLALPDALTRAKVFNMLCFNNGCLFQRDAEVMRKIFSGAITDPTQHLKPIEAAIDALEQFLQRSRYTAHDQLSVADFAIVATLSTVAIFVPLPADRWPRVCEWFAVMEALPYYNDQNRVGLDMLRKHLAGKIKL

DmGSTE9 = target: T3, DmGSTE9 (Drosophila melanogaster, UniProt A1ZB74); experiment: fluorogenic GSH conjugation assay with […],4-DNADCF; assay type: biochemical
T3 construct: gene GstE9; full-length CDS, pCold-III, N-terminal MNHKV kept; E. coli BL21(DE3)
T3 sequence (A1ZB74 1-221): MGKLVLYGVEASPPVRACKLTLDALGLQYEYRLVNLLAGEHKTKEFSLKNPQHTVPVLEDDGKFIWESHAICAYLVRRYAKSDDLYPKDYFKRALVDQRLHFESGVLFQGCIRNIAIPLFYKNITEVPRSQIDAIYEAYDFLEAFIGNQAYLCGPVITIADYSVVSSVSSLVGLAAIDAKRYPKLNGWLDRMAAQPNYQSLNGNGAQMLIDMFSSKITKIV

AgNobo [3] = target: T4, AgNobo (Anopheles gambiae, UniProt Q8WQJ5); experiment: fluorogenic GSH conjugation assay with […],4-DNADCF; assay type: biochemical
T4 construct: gene GSTe8; full-length CDS, pCold-III, N-terminal MNHKV kept; E. coli BL21(DE3)
T4 sequence (Q8WQJ5 1-217): T2 sequence (Q8WQJ5 1-217 D111A)

DmNobo [4] = target: T5, DmNobo (Drosophila melanogaster, UniProt Q7JYX0, D113A); experiment: fluorogenic GSH conjugation assay with […],4-DNADCF; assay type: biochemical
T5 construct: gene GstE14; full-length CDS, pCold-III, N-terminal translation enhancing element MNHKV kept; E. coli BL21(DE3); homodimer

DmNobo [5] = target: T1, DmNobo; experiment: SPR, Biacore T200, protein immobilised on CM5 chip by amine coupling; assay type: binding
Text: SPR, Biacore T200, protein immobilised on CM5 chip by amine coupling on DmNobo | Kd values between DmNobo WT and EST in the presence or absence of GSH were […]

DmGSTE6 = target: T6, DmGSTE6 (Drosophila melanogaster, UniProt A1ZB71); experiment: fluorogenic GSH conjugation assay with […],4-DNADCF; assay type: biochemical
T6 construct: gene GstE6; full-length CDS, pCold-III, N-terminal MNHKV kept; E. coli BL21(DE3)
T6 sequence (A1ZB71 1-222): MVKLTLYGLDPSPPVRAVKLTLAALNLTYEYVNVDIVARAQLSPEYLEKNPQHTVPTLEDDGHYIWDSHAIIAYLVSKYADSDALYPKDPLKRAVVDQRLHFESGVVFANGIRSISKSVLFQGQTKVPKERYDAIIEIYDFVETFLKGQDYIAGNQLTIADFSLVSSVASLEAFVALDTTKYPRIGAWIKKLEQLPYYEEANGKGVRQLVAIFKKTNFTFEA

T1 sequence (Q7JYX0 whole entry): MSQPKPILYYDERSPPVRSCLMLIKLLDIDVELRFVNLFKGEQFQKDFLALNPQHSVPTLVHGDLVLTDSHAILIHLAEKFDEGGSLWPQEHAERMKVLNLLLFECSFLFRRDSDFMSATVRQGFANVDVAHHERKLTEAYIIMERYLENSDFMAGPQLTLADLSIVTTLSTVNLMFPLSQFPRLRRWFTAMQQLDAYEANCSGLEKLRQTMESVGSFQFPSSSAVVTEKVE
T5 sequence (Q7JYX0 whole entry D113A): as the sequence (Q7JYX0 whole entry) above, with D113A counted along it

## C[C@]12CC[C@@H]3c4ccc(O)cc4CC[C@H]3[C@@H]1CC[C@@H]2O [17β-estradiol]
DmNobo [1]
  IC50: 2330 nM
AgNobo [2]
  IC50: > 25000 nM
DmGSTE9
  IC50: > 25000 nM
AgNobo [3]
  IC50: 2070 nM
DmNobo [4]
  IC50: > 25000 nM
DmNobo [5]
  Kd: 480 ± 100 nM
DmGSTE6
  IC50: > 25000 nM
